From ChEMBL document CHEMBL3813626, “Synthesis, antimalarial properties and 2D-QSAR studies of novel triazole-quinine conjugates” (Bioorg Med Chem, 2016)

test system: Plasmodium falciparum; assay: Antimalarial activity against blood stage Plasmodium falciparum 3D7 infected in human erythrocytes assessed as reduction in parasitemia after 72 hrs by SYBR green I fluorescence-based method; assay type: functional, organism-based; details: 3D7, 72 h

Point of comparison: `C=C[C@H]1CN2CC[C@H]1C[C@@H]2[C@H](OCc1cn(CC(OC)OC)nn1)c1ccnc2ccc(OC)cc12`, IC50 3400 nM. Against it:
- C=C[C@H]1CN2CC[C@H]1C[C@@H]2[C@H](OCCc1cn(-c2ccc(Cl)cc2)nn1)c1ccnc2ccc(OC)cc12 — 83-fold lower, 41 nM
- C=C[C@H]1CN2CC[C@H]1C[C@@H]2[C@H](OCCc1cn(-c2ccc(C)cc2)nn1)c1ccnc2ccc(OC)cc12 — 85-fold lower, 40 nM
- C=C[C@H]1CN2CC[C@H]1C[C@@H]2[C@H](OCc1cn(/C=C/n2nnc3ccccc32)nn1)c1ccnc2ccc(OC)cc12 — 2.3-fold lower, 1500 nM
- C=C[C@H]1CN2CC[C@H]1C[C@@H]2[C@H](OCc1cn([C@@H](C)C(=O)O)nn1)c1ccnc2ccc(OC)cc12 — 12-fold higher, 41000 nM
- C=C[C@H]1CN2CC[C@H]1C[C@@H]2[C@H](OCc1cn([C@H](C(=O)O)C(C)C)nn1)c1ccnc2ccc(OC)cc12 — 5.9-fold higher, 20000 nM
- C=C[C@H]1CN2CC[C@H]1C[C@@H]2[C@H](OCc1cn(-c2ccccn2)nn1)c1ccnc2ccc(OC)cc12 — 1.7-fold higher, 5700 nM
- C=C[C@H]1CN2CC[C@H]1C[C@@H]2[C@H](OCc1cn(-c2ccccc2C#N)nn1)c1ccnc2ccc(OC)cc12 — 3.4-fold lower, 1000 nM
- C=C[C@H]1CN2CC[C@H]1C[C@@H]2[C@H](OCc1cn(CC(=O)N[C@@H](CC(C)C)C(=O)O)nn1)c1ccnc2ccc(OC)cc12 — 3.5-fold higher, 12000 nM
- C=C[C@H]1CN2CC[C@H]1C[C@@H]2[C@H](OCc1cn(Cc2ccccc2)nn1)c1ccnc2ccc(OC)cc12 — 4.3-fold lower, 790 nM
- C=C[C@H]1CN2CC[C@H]1C[C@@H]2[C@H](OCc1cn(-c2ccc(OC)cc2)nn1)c1ccnc2ccc(OC)cc12 — 1.5-fold lower, 2200 nM
- C=C[C@H]1CN2CC[C@H]1C[C@@H]2[C@H](OCCc1cn(-c2ccccc2Cl)nn1)c1ccnc2ccc(OC)cc12 — 92-fold lower, 37 nM
- C=C[C@H]1CN2CC[C@H]1C[C@@H]2[C@H](OCc1cn([C@@H](CC(C)C)C(=O)O)nn1)c1ccnc2ccc(OC)cc12 — 9.1-fold higher, 31000 nM
- C=C[C@H]1CN2CC[C@H]1C[C@@H]2[C@H](OCc1cn(-c2ccccc2Cl)nn1)c1ccnc2ccc(OC)cc12 — 5.9-fold higher, 20000 nM
- C=C[C@H]1CN2CC[C@H]1C[C@@H]2[C@H](OCc1cn(Cc2ccc([N+](=O)[O-])cc2)nn1)c1ccnc2ccc(OC)cc12 — 2.8-fold lower, 1200 nM
- C=C[C@H]1CN2CC[C@H]1C[C@@H]2[C@H](OCc1cn([C@@H](Cc2ccccc2)C(=O)O)nn1)c1ccnc2ccc(OC)cc12 — 2.3-fold higher, 7700 nM
- C=C[C@H]1CN2CC[C@H]1C[C@@H]2[C@H](OCc1cn(-c2ccc(Cl)cc2)nn1)c1ccnc2ccc(OC)cc12 — 3.8-fold lower, 900 nM
- C=C[C@H]1CN2CC[C@H]1C[C@@H]2[C@H](OCc1cn(CCCc2ccccc2)nn1)c1ccnc2ccc(OC)cc12 — 3.8-fold lower, 890 nM
- C=C[C@H]1CN2CC[C@H]1C[C@@H]2[C@H](OCc1cn(Cn2nnc3ccccc32)nn1)c1ccnc2ccc(OC)cc12 — within 1.5-fold, 4800 nM
- C=C[C@H]1CN2CC[C@H]1C[C@@H]2[C@H](OCCc1cn(Cc2ccccc2)nn1)c1ccnc2ccc(OC)cc12 — 110-fold lower, 30 nM
- C=C[C@H]1CN2CC[C@H]1C[C@@H]2[C@H](OCc1cn(CC(=O)N[C@@H](Cc2ccccc2)C(=O)O)nn1)c1ccnc2ccc(OC)cc12 — 1.6-fold higher, 5500 nM
- C=C[C@H]1CN2CC[C@H]1C[C@@H]2[C@H](OCCc1cn(CCCc2ccccc2)nn1)c1ccnc2ccc(OC)cc12 — 130-fold lower, 27 nM
- C=C[C@H]1CN2CC[C@H]1C[C@@H]2[C@H](OCc1cn(-c2ccc([N+](=O)[O-])cc2)nn1)c1ccnc2ccc(OC)cc12 — 5.3-fold lower, 640 nM
- C=C[C@H]1CN2CC[C@H]1C[C@@H]2[C@H](OCCc1cn(-c2ccc(OC)cc2)nn1)c1ccnc2ccc(OC)cc12 — 79-fold lower, 43 nM
- C=C[C@H]1CN2CC[C@H]1C[C@@H]2[C@H](OCc1cn([C@H](C(=O)N(CC)CC)C(C)C)nn1)c1ccnc2ccc(OC)cc12 — 3.9-fold lower, 880 nM
- C=C[C@H]1CN2CC[C@H]1C[C@H]2[C@H](O)c1ccnc2ccc(OC)cc12 [QUININE] — 59-fold lower, 58 nM
- C=C[C@H]1CN2CC[C@H]1C[C@@H]2[C@H](OCc1cn(Cc2ccc(C)cc2)nn1)c1ccnc2ccc(OC)cc12 — 7.6-fold lower, 450 nM
- C=C[C@H]1CN2CC[C@H]1C[C@@H]2[C@H](OCCc1cn(-c2ccccc2[N+](=O)[O-])nn1)c1ccnc2ccc(OC)cc12 — within 1.5-fold, 3300 nM
- C=C[C@H]1CN2CC[C@H]1C[C@@H]2[C@H](OCc1cn(-c2cccc(C#N)c2)nn1)c1ccnc2ccc(OC)cc12 — 1.7-fold lower, 2000 nM
- C=C[C@H]1CN2CC[C@H]1C[C@@H]2[C@H](OCc1cn(-c2ccccc2[N+](=O)[O-])nn1)c1ccnc2ccc(OC)cc12 — 2.6-fold lower, 1300 nM
- C=C[C@H]1CN2CC[C@H]1C[C@@H]2[C@H](OCCc1cn(-c2ccc([N+](=O)[O-])cc2)nn1)c1ccnc2ccc(OC)cc12 — 9.9-fold lower, 345 nM
- C=C[C@H]1CN2CC[C@H]1C[C@@H]2[C@H](OCc1cn([C@@H](Cc2c[nH]c3ccccc23)C(=O)O)nn1)c1ccnc2ccc(OC)cc12 — 2.5-fold higher, 8400 nM
